Data from patent US10730870B2, “Compounds and methods for the enhanced degradation of targeted proteins” (Arvinas, Inc., priority 2015, dated 2020).

Target: VHL (Homo sapiens (Human), UniProt P40337)
Test: VHL fluorescence polarization (FP) competition assay
Type: binding

Row | IC50 (1% in DMSO) [µM] | IC50 (10% in DMSO) [µM] | IC50 (0.25% in DMSO) [µM] | SMILES
1 | 1.45 |  |  | CC(C)[C@@H](C(=O)N1C[C@H](O)C[C@H]1C(=O)NCc1ccc(-c2cncs2)cc1)N1Cc2ccccc2C1=O [Example 97, (2S,4R)-4-hydroxy-1-((S)-3-methyl-2-(1-oxoisoindolin-2-yl)butanoyl)-N-(4-(thiazol-5-yl)benzyl)pyrrolidine-2-carboxamide]
2 | 4.95 | 15.7 |  | Cc1ncsc1-c1ccc(CNC(=O)[C@@H]2C[C@@H](O)CN2C(=O)[C@H](C(C)C)N2Cc3cccc(Br)c3C2=O)cc1 [Example 42, (2S,4R)-1-((S)-2-(7-bromo-1-oxoisoindolin-2-yl)-3-methylbutanoyl)-4-hydroxy-N-(4-(4-methylthiazol-5-yl)benzyl)pyrrolidine-2-carboxamide]
3 | 0.86 | 1.03 |  | COc1ccc2c(c1)CN([C@H](C(=O)N1C[C@H](O)C[C@H]1C(=O)NCc1ccc(-c3scnc3C)cc1)C(C)C)C2=O [Example 72, (2S,4R)-4-hydroxy-1-((S)-2-(5-methoxy-1-oxoisoindolin-2-yl)-3-methylbutanoyl)-N-(4-(4-methylthiazol-5-yl)benzyl)pyrrolidine-2-carboxamide]
4 | 2.48 | 3.73 |  | Cc1ncsc1-c1ccc(CNC(=O)[C@@H]2C[C@@H](O)CN2C(=O)[C@@H](NC(=O)CCC(C)C)c2cccs2)cc1 [Example 52, (2S,4R)-4-hydroxy-1-((R)-2-(4-methylpentanamido)-2-(thiophen-2-yl)acetyl)-N-(4-(4-methylthiazol-5-yl)benzyl)pyrrolidine-2-carboxamide]
5 | 1.24 | 1.46 |  | Cc1ncsc1-c1ccc(CNC(=O)[C@@H]2C[C@@H](O)CN2C(=O)[C@@H](NC(=O)c2cccnc2)C(C)(C)C)cc1 [Example 84, N—((S)-1-((2S,4R)-4-hydroxy-2-(4-(4-methylthiazol-5-yl)benzylcarbamoyl)pyrrolidin-1-yl)-3,3-dimethyl-1-oxobutan-2-yl)nicotinamide]
6 | > 10 |  |  | CC(C)[C@@H](C(=O)N1C[C@H](O)C[C@H]1C(=O)NCc1ccc(C2CC2)cc1)N1Cc2ccccc2C1=O [Example 113, (2S,4R)—N-(4-cyclopropylbenzyl)-4-hydroxy-1-((S)-3-methyl-2-(1-oxoisoindolin-2-yl)butanoyl)pyrrolidine-2-carboxamide]
7 | 58.4 | 53 |  | COc1cccc(C(=O)N2C[C@H](O)C[C@H]2C(=O)NCc2ccc(-c3scnc3C)cc2)c1 [Example 63, (2S,4R)-4-hydroxy-1-(3-methoxybenzoyl)-N-(4-(4-methylthiazol-5-yl)benzyl)pyrrolidine-2-carboxamide]
8 | > 49 | 371 |  | COc1ccc(CNC(=O)[C@@H]2C[C@@H](O)CN2C(=O)[C@H](C(C)C)N2Cc3ccccc3C2=O)cc1 [Example 81, (2S,4R)-4-hydroxy-N-(4-methoxybenzyl)-1-((S)-3-methyl-2-(1-oxoisoindolin-2-yl)butanoyl)pyrrolidine-2-carboxamide]
9 | 5.59 |  |  | CC(C)[C@@H](C(=O)N1C[C@H](O)C[C@H]1C(=O)NCc1ccc(-c2ccno2)cc1)N1Cc2ccccc2C1=O [Example 136, (2S,4R)-4-hydroxy-N-(4-(isoxazol-5-yl)benzyl)-1-((S)-3-methyl-2-(1-oxoisoindolin-2-yl)butanoyl)pyrrolidine-2-carboxamide]
10 | 0.265 | 1.8 | 2.95 | Cc1ncsc1-c1ccc(CNC(=O)[C@@H]2C[C@@H](O)CN2C(=O)[C@H](C(C)C)N2Cc3cc(F)ccc3C2=O)cc1 [Example 16, (2S,4R)-1-((S)-2-(5-fluoro-1-oxoisoindolin-2-yl)-3-methylbutanoyl)-4-hydroxy-N-(4-(4-methylthiazol-5-yl)benzyl)pyrrolidine-2-carboxamide]
11 | 2.51 | 6.04 | 1.14 | CC(C)[C@@H](C(=O)N1C[C@H](O)C[C@H]1C(=O)NCc1ccc(Br)cc1)N1Cc2ccccc2C1=O [Example 23, (2S,4R)—N-(4-bromobenzyl)-4-hydroxy-1-((S)-3-methyl-2-(1-oxoisoindolin-2-yl)butanoyl)pyrrolidine-2-carboxamide]
12 | 23.4 |  |  | COc1ccc(C)c(C(=O)N2C[C@H](O)C[C@H]2C(=O)NCc2ccc(-c3scnc3C)cc2)c1 [Example 95, (2S,4R)-4-hydroxy-1-(5-methoxy-2-methylbenzoyl)-N-(4-(4-methylthiazol-5-yl)benzyl)pyrrolidine-2-carboxamide]
13 | 0.941 | 0.441 | 2.94 | Cc1ncsc1-c1ccc(CNC(=O)[C@@H]2C[C@@H](O)CN2C(=O)[C@H](C(C)C)N2Cc3c(Br)cccc3C2=O)cc1 [Example 26, (2S,4R)-1-((S)-2-(4-bromo-1-oxoisoindolin-2-yl)-3-methylbutanoyl)-4-hydroxy-N-(4-(4-methylthiazol-5-yl)benzyl)pyrrolidine-2-carboxamide]

Continued, compound first:

Row | SMILES | IC50 (1% in DMSO) [µM] | IC50 (10% in DMSO) [µM] | IC50 (0.25% in DMSO) [µM]
14 | CCC(C(=O)N1C[C@H](O)C[C@H]1C(=O)NCc1ccc(-c2scnc2C)cc1)c1cc(C)no1 (stereo partly drawn) [Example 143, (2S,4R)-4-hydroxy-1-(2-(3-methylisoxazol-5-yl)butanoyl)-N-(4-(4-methylthiazol-5-yl)benzyl)pyrrolidine-2-carboxamide] | 0.964 |  | 
15 | COCC#Cc1ccc2c(c1)CN([C@H](C(=O)N1C[C@H](O)C[C@H]1C(=O)NCc1ccc(-c3scnc3C)cc1)C(C)C)C2=O [Example 53, (2S,4R)-4-hydroxy-1-((S)-2-(5-(3-methoxyprop-1-ynyl)-1-oxoisoindolin-2-yl)-3-methylbutanoyl)-N-(4-(4-methylthiazol-5-yl)benzyl)pyrrolidine-2-carboxamide] | 0.474 | 1.03 | 
16 | CC(C)[C@@H](C(=O)N1C[C@H](O)C[C@H]1C(=O)NCc1ccc(-c2ccn[nH]2)cc1)N1Cc2ccccc2C1=O [Example 41, (2S,4R)—N-(4-(1H-pyrazol-5-yl)benzyl)-4-hydroxy-1-((S)-3-methyl-2-(1-oxoisoindolin-2-yl)butanoyl)pyrrolidine-2-carboxamide] | 1.19 | 3.05 | 7.28
17 | Cc1cc(C(C)(C)C(=O)N2C[C@H](O)C[C@H]2C(=O)NCc2ccc(-c3scnc3C)cc2)on1 [Example 140, (2S,4R)-4-hydroxy-1-(2-methyl-2-(3-methylisoxazol-5-yl)propanoyl)-N-(4-(4-methylthiazol-5-yl)benzyl)pyrrolidine-2-carboxamide] | 157 |  | 
18 | CO/N=C(/NCc1ccc(-c2scnc2C)cc1)[C@@H]1C[C@@H](O)CN1C(=O)[C@H](C(C)C)N1Cc2ccccc2C1=O [Example 120, (2S,4R,E)-4-hydroxy-N′-methoxy-1-((S)-3-methyl-2-(1-oxoisoindolin-2-yl)butanoyl)-N-(4-(4-methylthiazol-5-yl)benzyl)pyrrolidine-2-carboximidamide] | 15.5 |  | 
19 | CC[C@H](C)[C@@H](C(=O)N1C[C@H](O)C[C@H]1C(=O)NCc1ccc(-c2scnc2C)cc1)N1Cc2ccccc2C1=O [Example 30, (2S,4R)-4-hydroxy-1-((2S,3S)-3-methyl-2-(1-oxoisoindolin-2-yl)pentanoyl)-N-(4-(4-methylthiazol-5-yl)benzyl)pyrrolidine-2-carboxamide] | 0.572 | 0.859 | 2.27
20 | Cc1ncsc1-c1ccc(CNC(=O)[C@@H]2C[C@@H](O)CN2C(=O)[C@H](C(C)C)N2Cc3cccc(Cl)c3C2=O)cc1 [Example 7, (2S,4R)-1-((S)-2-(7-cloro-1-oxoisoindolin-2-yl)-3-methylbutanoyl)-4-hydroxy-N-(4-(4-methylthiazol-5-yl)benzyl)pyrrolidine-2-carboxamide] | 7.51 | 8.52 | 
21 | Cc1ncsc1-c1ccc(CNC(=O)[C@@H]2C[C@@H](O)CN2C(=O)[C@H](CS)N2Cc3ccccc3C2=O)cc1 [Example 48, (2S,4R)-4-hydroxy-1-((R)-3-mercapto-2-(1-oxoisoindolin-2-yl)propanoyl)-N-(4-(4-methylthiazol-5-yl)benzyl)pyrrolidine-2-carboxamide] | 3.77 | 4.7 | 
22 | COc1ccc(C(=O)N2C[C@H](O)C[C@H]2C(=O)NCc2ccc(-c3scnc3C)cc2)c(C)c1 [Example 88, (2S,4R)-4-hydroxy-1-(4-methoxy-2-methylbenzoyl)-N-(4-(4-methylthiazol-5-yl)benzyl)pyrrolidine-2-carboxamide] | 20.4 | 39.2 | 
23 | CC(C)[C@@H](C(=O)N1C[C@H](O)C[C@H]1C(=O)NCc1ccc(N2CCOCC2)cc1)N1Cc2ccccc2C1=O [Example 91, (2S,4R)-4-hydroxy-1-((S)-3-methyl-2-(1-oxoisoindolin-2-yl)butanoyl)-N-(4-morpholinobenzyl)pyrrolidine-2-carboxamide] | > 100 |  | 
24 | Cc1c(-c2ccc(CNC(=O)[C@@H]3C[C@@H](O)CN3C(=O)[C@H](C(C)C)N3Cc4ccccc4C3=O)cc2)ncn1C [Example 106, (2S,4R)—N-(4-(1,5-dimethyl-1H-imidazol-4-yl)benzyl)-4-hydroxy-1-((S)-3-methyl-2-(1-oxoisoindolin-2-yl)butanoyl)pyrrolidine-2-carboxamide] | 14.2 |  | 
25 | COc1cccc(CCC(=O)N[C@H](C(=O)N2C[C@H](O)C[C@H]2C(=O)NCc2ccc(-c3scnc3C)cc2)C(C)(C)C)c1 [Example 77, (2S,4R)-4-hydroxy-1-((S)-2-(3-(3-methoxyphenyl)propanamido)-3,3-dimethylbutanoyl)-N-(4-(4-methylthiazol-5-yl)benzyl)pyrrolidine-2-carboxamide] | 0.55 | 0.349 | 
26 | Cc1ncsc1-c1ccc(CNC(=O)[C@@H]2C[C@@H](O)CN2C(=O)C(N)C(F)(F)F)cc1 (stereo partly drawn) [Example 89, (2S,4R)-1-(2-amino-3,3,3-trifluoropropanoyl)-4-hydroxy-N-(4-(4-methylthiazol-5-yl)benzyl)pyrrolidine-2-carboxamide] | 60.6 | 139 | 
27 | CC(C)[C@@H](C(=O)N1C[C@H](O)C[C@H]1C(=O)NCc1ccc(-c2scnc2C2CC2)cc1)N1Cc2ccccc2C1=O [Example 2, (2S,4R)—N-(4-(4-cyclopropylthiazol-5-yl)benzyl)-4-hydroxy-1-((S)-3-methyl-2-(1-oxoisoindolin-2-yl)butanoyl)pyrrolidine-2-carboxamide] | 0.732 | 0.533 | 2.86
